Assay results reported in US20240343677A1, “L-ASPARTIC ACID N, N-DIACETIC ACID TETRASODIUM SALT AND PREPARATION METHOD THEREFOR” (HEFEI ALL-PLUS ENVIRONMENTAL TECNOLOGY CO., LTD., priority 2021, published 2024).

Columns and labels:
[1] = Chelating ability for metal ions compared with other chelating agents; assay type: physicochemical; details: same condition as other chelating agents (FIG. 5)
[2] = Efficiency of removing calcium carbonate water scales; details: compared with other amino polymeric chelating agents (FIG. 6)
Description: 5. The ASDA can also be used for preventing water scale and precipitation and removing water scale.

[3] = Biodegradability of ASDA in sewage according to OECD 301B standard; details: 28 days, third-party detection, ASDA of Example 1
Protocol: FIG. 1 is a graph of biodegradability detection results of ASDA prepared in Example 1 of the present disclosure tested in a stable sewage environment;
1. […] The detection was carried out by a third-party detection mechanism.

[4] = Protocol: FIG. 4 is a thermogravimetric analysis graph of the ASDA prepared in Example 1 of the present disclosure;
3. Thermal stability and application environment adaptability of the L-aspartic acid N,N-diacetic acid tetrasodium salt (ASDA) prepared by the preparation method provided in Example 1 were detected. […] The thermal stability of ASDA-Na4 powder was measured by thermogravimetric analysis (TGA) and differential scanning calorimetry (DSC).

[5] = Solubility in water of different pH values and in concentrated sodium hydroxide solution; assay type: physicochemical; details: ASDA of Example 1
Description: It can also correspondingly reduce transportation and warehousing costs, and alleviate the problem of high transportation and warehousing costs.

28-day biodegradability [3] [%]	moisture lost ([4]; ASDA solid, all moisture lost at about 250° C., TGA)	temperature above which rapid decomposition begins ([4]; ASDA-Na4 powder, TGA/DSC)	solubility under a strong alkali condition ([5]; concentrated sodium hydroxide solution (FIG. 3))	solubility in low pH ([5]; water, low pH (FIG. 2))	thermal stability (thermally more stable than ASDA) [4] [°C]	SMILES	comprehensive performance in chelating metal ions [1]	efficiency of removing CaCO3 scales [2]
≥ 60	about 4%	above 380 °C	high solubility	high solubility		O=C([O-])C[C@@H](C(=O)[O-])N(CC(=O)[O-])CC(=O)[O-].[Na+].[Na+].[Na+].[Na+] [ASDA, L-aspartic acid N,N-diacetic acid tetrasodium salt]	excellent	the best biodegradable chelate for removing CaCO3 scales
					> 150	O=C(O)CN(CCN(CC(=O)O)CC(=O)O)CC(=O)O [EDTA, ethylenediaminetetraacetic acid, reference compound]		
					> 150	O=C(O)CN(CC(=O)O)CC(=O)O [NTA, nitrilotriacetic acid, reference compound]		
